# Reference: patent publication US8163921B2, “Hepatitis C virus inhibitors” (Bristol-Myers Squibb Company, priority 2008, dated 2012)
# Assays:
# [1] = biological target: T1, HCV NS3/4A protease complex, BMS strain (UniProt P27958, C1454S/C1711G, species not given); experiment: FRET peptide assay to monitor HCV NS3/4A proteolytic activity (BMS strain); format: biochemical, HCV genotype 1a; conditions: read-out: IC50 Range; HCV NS3/4A enzyme assay; class symbols
# T1 construct: other: HCV NS3/4A enzyme assay; class symbols; numeric values; fused on or other part: three-lysine solubilising tail at the C-terminus of NS4A; purified on Ni-NTA from the pET21b vector (His tag implied)
# Procedure, shortened: (§1)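 Recombinant HCV NS3/4A protease complex (BMS strain, genotype 1a), 2-3 nM final (300 pM with 50 μg/ml BSA for very potent compounds), incubated with RET S1 EDANS/DABCYL depsipeptide substrate at 2 μM final. Buffer: 50 mM HEPES pH 7.5, 0.15 M NaCl, 0.1% Triton, 15% glycerol, 10 mM βME. Cleavage followed in real time by fluorescence.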
# [2] = biological target: T2, HCV NS3/4A protease complex, BMS strain (UniProt P27958, C1454S/C1711G, species not given/STRAIN_BMS); experiment: as above; format: biochemical, HCV genotype 1a; conditions: read-out: IC50 against the NS3/4A BMS strain in the enzyme assay; BMS strain
# T2 construct: other: BMS strain; fused on or other part: three-lysine solubilising tail at the C-terminus of NS4A; purified on Ni-NTA from the pET21b vector (His tag implied)
# Procedure, shortened: as §1
structure (smiles),measurement,setting,value
C=C[C@@H]1C[C@]1(NC(=O)[C@@H]1C[C@@H](Oc2ncc(OC)c3ccc(Cl)cc23)CN1C(=O)[C@@H](Nc1nc(-c2cccc(OC(F)(F)F)c2)cs1)C(C)(C)C)C(=O)NS(=O)(=O)C1CC1 [Example 68],IC50,[1],1 to 20 nM
same,IC50,[2],4 nM
